According to patent publication US20250179499A1, “USE OF CDK16 AS TARGET IN PREPARATION OF MEDICINE FOR TREATING TRIPLE-NEGATIVE BREAST CANCER” (SHENZHEN TYERCAN BIO-PHARM CO., LTD., priority 2022, published 2025):

What was measured:
MDA-MB-231 xenografts = test: Growth of MDA-MB-231 xenografts transplanted in situ into mammary gland fat pads; format: in vivo, mice; details: Rebastinib 80 mg/kg by gavage, 13 days, vs solvent control; FIG. 5A-5D
Source text: Lentivirus-infected breast tumor cells were resuspended with 50% of FBS (diluted with PBS), added with Matrigel at a volume ratio of 1:1, then added with 0.04% of trypan blue, mixed well, and placed on ice until inoculation into mice. After the mouse was anesthetized, it was placed on an experimental table with its abdomen facing upwards, and a “Y”-shaped opening was cut in its abdominal epidermis along a midline and the direction of the lower limbs on both sides with scissors (without cutting the peritoneum). The opening was peeled off to both sides with cotton swabs and tweezers to expose the fourth pair of mammary gland fat pads, and the epidermis was fixed with needles. 10-20 μL of a cell suspension was drawn up with a syringe and injected into the mammary gland fat pads. Finally, the skin on both sides was closed and sutured with surgical staples. The surgical staples could be removed after the wound healed. Since the surgery, the occurrence of tumors in the mouse was observed and recorded every day. After about one week, the length and width of the tumor were measured with a vernier caliper and recorded, and the change in the weight of the mouse was monitored. The tumor volume was calculated by the following formula: Volume (mm^3)=length×width×width×0.52.
(§1) The tumor cell line was transplanted in situ as that in Example 1. When the tumor size reached […], the mice were divided into a control group (solvent) and a group administrated with Rebastinib (80 mg/kg), with 3 mice in each group. The mice were administrated by gavage continuously (administrated with MDA-MB-231 xenografts for 13 days and administrated with PDX for 11 days), during which the mice were weighed every day, and the tumor size was measured every three days. After completion of the administration, the mice were sacrificed and the tumors were weighed.

TNBC-type PDOs = test: Growth of TNBC PDO (patient-derived organoids in Matrigel); format: cell-based, human; details: 1 μM and 5 μM
Procedure: The primary tumor cells from the patient infected with the lentivirus were resuspended with pre-cooled Matrigel to a concentration of 2× 10^4 cells/50 μL Matrigel. The Matrigel was added dropwise into a 24-well culture plate and allowed to stand at 37° C. for 15-20 min. After confluence, the cells were added with a breast cancer tumor organoid culture medium for culture, the culture medium was replaced by a fresh culture medium every three days, and the number and size of organoid growth were counted.
Similar to the PDO model establishment operation in Example 1, the primary tumor cells derived from TNBC patients were resuspended with pre-cooled Matrigel to a concentration of 2×10^4 cells/50 μL Matrigel. The Matrigel was added dropwise into a 24-well culture plate and allowed to stand at 37° C. for 15-20 min. After confluence, the cells were added with a breast cancer tumor organoid culture medium for culture, and the culture medium was replaced by a fresh culture medium every three days. The PDOs were divided into 6 groups, including an untreated group, a solvent control group, groups administrated with low and high doses of Abemaciclib (with doses of 1 μM and 5 μM, respectively), and groups administrated with low and high doses of Rebastinib (with doses of 1 μM and 5 μM, respectively). After three days of culture, the PDOs were started to be treated by addition of a drug according to groups. The size and number of organoids were counted after one week.

TNBC-type PDX tumors = test: Growth of TNBC-type PDX tumors; format: in vivo, NSG mice; details: Rebastinib 80 mg/kg by gavage, 11 days, vs solvent control; FIG. 5H-5K
Procedure: Primary tumor cells from the patient infected with the lentivirus were in-situ injected into the fourth pair of mammary gland fat pads of the NSG mice according to the method described in 3, and the occurrence of tumors was observed and recorded.
as §1

Compound: CNC(=O)c1cc(Oc2ccc(NC(=O)Nc3cc(C(C)(C)C)nn3-c3ccc4ncccc4c3)c(F)c2)ccn1 [Rebastinib]
- sizes of MDA-MB-231 tumors (MDA-MB-231 xenografts): significantly inhibits
- volumes of MDA-MB-231 tumors (MDA-MB-231 xenografts): significantly inhibits
- weights of MDA-MB-231 tumors (MDA-MB-231 xenografts): significantly inhibits
- sizes of TNBC-type PDOs (TNBC-type PDOs; counted after one week, FIG. 5E): significantly inhibits
- number of TNBC-type PDOs (TNBC-type PDOs; counted after one week, FIG. 5F): significantly reduces
- apoptosis of TNBC-type PDOs (TNBC-type PDOs; FIG. 5G): promotes
- proliferation of TNBC-type PDOs (TNBC-type PDOs; FIG. 5G): significantly inhibits
- sizes of TNBC-type PDX tumors (TNBC-type PDX tumors): significantly inhibits
- volumes of TNBC-type PDX tumors (TNBC-type PDX tumors): significantly inhibits
- weights of TNBC-type PDX tumors (TNBC-type PDX tumors): significantly inhibits
